From patent US20110065663A1, “ANTI-CANCER COMBINATION THERAPY” (Katholieke Universiteit Leuven, K.U. Leuven R&D, priority 2008, published 2011)
Where two headings read alike, the source gives them in different places.

Legend:
Assay type in all cases: cell-based, human
MCF-7 cells = test: Tumor cell proliferation assay, uninfected MCF-7 cells; settings: for IC50: Homo sapiens, uninfected MCF-7; for Ratio (1)/(2) MCF-7: IC50 in the absence of TPi to IC50 in the presence of TPi
Method: MCF-7 and MCF-7/HYOR cells were seeded in 48-well plates at 10,000 cells/cm^2. […] of the test compounds (5FU, 5′DFUR, CIdUrd, BrdUrd, IdUrd and TFT) with or without 10 μM TPi were added. The cells were incubated for another 4 days, trypsinized and counted by a Coulter counter (Analis, Suarlée, Belgium). In some experiments, the antibiotic plasmocin was added one or three days before addition of the test compounds.

MCF-7/HYOR cells [1] = test: Tumor cell proliferation assay, M. hyorhinis-infected MCF-7 cells; settings: for IC50: Homo sapiens, MCF7; for Ratio (1)/(2) MCF-7/HYOR: IC50 in the absence of TPi to IC50 in the presence of TPi; for Anti-proliferative activity in MCF-7/HYOR after three days pre-incubation with doxycycline / Anti-proliferative activity in MCF-7/HYOR after three days pre-incubation with plasmocin: 3 days
Method: Mycoplasma hyorhinis (ATCC 17981) was obtained from the American Type Culture Collection (ATCC, Manassas, Va.). The freeze-dried bacteria were reconstituted by adding 1 ml of DMEM. […] The co-culture of MCF-7 cells and M. hyorhinis was maintained under the same conditions as the uninfected MCF-7 cells. […] The cells were incubated for another 4 days, trypsinized and counted by a Coulter counter (Analis, Suarlée, Belgium).

MCF-7/HYOR cells [2] = test: Nucleotide incorporation assay, MCF-7/HYOR compared with MCF-7 cells; settings: 1 μCi radiolabeled compound; FIG. 4
Method: MCF-7 and MCF-7/HYOR cells were seeded at 10,000 cells/cm. After 48 hours, cells were treated with 1 μCi of ^3H-labeled nucleoside with or without 10 μM TPi. 16 h later, the medium was removed and the cells were washed twice with PBS. Next, the cells were trypsinized, transferred to Eppendorf tubes and centrifuged for 10 minutes at 1,400 rpm. The pellet was resuspended in 1 ml absolute ice-cold methanol and kept on ice for 20 minutes. After centrifugation for 20 minutes at 13,000 rpm the pellet was washed twice with methanol, resuspended in methanol and transferred to scintillation vials containing 9 ml of Ready safe liquid scintillation reagent (‘Hisafe 3’, Perkin Elmer, Waltham, Mass.). The radioactivity was measured by a Liquid scintillation analyzer (2300 TR, Packard, Canberra, Australia).

MCF-7/HYOR cell cultures = test: Nucleoside metabolism experiments, distribution of drug-derived radiolabel in MCF-7/HYOR cell cultures; settings: MCF-7/HYOR
Method: Next, the cells were trypsinized, transferred to Eppendorf tubes and centrifuged for 10 minutes at 1,400 rpm. The pellet was resuspended in 1 ml absolute ice-cold methanol and kept on ice for 20 minutes. After centrifugation for 20 minutes at 13,000 rpm the pellet was washed twice with methanol, resuspended in methanol and transferred to scintillation vials containing 9 ml of Ready safe liquid scintillation reagent (‘Hisafe 3’, Perkin Elmer, Waltham, Mass.). The radioactivity was measured by a Liquid scintillation analyzer (2300 TR, Packard, Canberra, Australia). […] Next, the cells were incubated in 0.5 ml absolute ice-cold methanol and kept on ice for 20 minutes. After centrifugation for 20 minutes at 13,000 rpm, the supernatant was subjected to HPLC analysis. […] The amount of compound incorporated into nucleic acids was measured as described above.

[3] = MCF7, 96 h, no TPi, 4 days, read-out: IC50 MCF-7 As such
[4] = MCF7, with 10 μM TPi, read-out: IC50 MCF-7 +TPi (10 μM)
[5] = M. hyorhinis-infected MCF-7, no TPi, no plasmocin, read-out: IC50 MCF-7/HYOR As such
[6] = M. hyorhinis-infected MCF-7, with 10 μM TPi, read-out: IC50 MCF-7/HYOR +TPi (10 μM)
[7] = plasmocin 25 μg/ml, 1 day pretreatment, read-out: IC50 MCF-7/HYOR +plasmocin (25 μg/ml) 1 day prior to addition of test compounds
[8] = plasmocin 25 μg/ml, 3 days pretreatment, read-out: IC50 MCF-7/HYOR +plasmocin (25 μg/ml) 3 days prior to addition of test compounds

Compound: O=c1[nH]cc(F)c(=O)[nH]1 [5FU, 5-fluorouracil]
- IC50 (MCF-7 cells; [3]): 810 ± 240 nM
- IC50 (MCF-7 cells; [4]): 620 ± 290 nM
- Ratio (1)/(2) MCF-7 (MCF-7 cells): 1.3
- IC50 (MCF-7/HYOR cells [1]; [5]): 750 ± 240 nM
- IC50 (MCF-7/HYOR cells [1]; [6]): 530 ± 250 nM
- IC50 (MCF-7/HYOR cells [1]; [7]): 740 ± 110 nM
- IC50 (MCF-7/HYOR cells [1]; [8]): 670 ± 110 nM
- Ratio (1)/(2) MCF-7/HYOR (MCF-7/HYOR cells [1]): 1.4
- Incorporation into nucleic acids, infected versus uninfected MCF-7 cells (in words) (MCF-7/HYOR cells [2]): no difference

Compound: O=c1[nH]c(=O)n([C@H]2C[C@H](O)[C@@H](CO)O2)cc1Br [BrdUrd, 5-bromo-2′-deoxyuridine]
- IC50 (MCF-7 cells; [3]): 590 ± 100 nM
- IC50 (MCF-7 cells; [4]): 360 ± 10 nM
- Ratio (1)/(2) MCF-7 (MCF-7 cells): 1.6
- IC50 (MCF-7/HYOR cells [1]; [5]): 8600 ± 1170 nM
- IC50 (MCF-7/HYOR cells [1]; [6]): 840 ± 240 nM
- IC50 (MCF-7/HYOR cells [1]; [7]): 2220 ± 1100 nM
- IC50 (MCF-7/HYOR cells [1]; [8]): 740 ± 200 nM
- Ratio (1)/(2) MCF-7/HYOR (MCF-7/HYOR cells [1]): 10
- % of drug-derived radiolabel, In medium, Base (MCF-7/HYOR cell cultures; 1 μCi, 16 h): 49.5%
- % of drug-derived radiolabel, In medium, Nucleoside (MCF-7/HYOR cell cultures; 1 μCi, 16 h): 42.0%
- % of drug-derived radiolabel, In the cytosol of the cells, 5′-diphosphate (MCF-7/HYOR cell cultures; 1 μCi, 16 h): 0.2%
- % of drug-derived radiolabel, In the cytosol of the cells, 5′-monophosphate (MCF-7/HYOR cell cultures; 1 μCi, 16 h): 0.4%
- % of drug-derived radiolabel, In the cytosol of the cells, 5′-triphosphate (MCF-7/HYOR cell cultures; 1 μCi, 16 h): 0.2%
- % of drug-derived radiolabel, In the cytosol of the cells, Nucleoside/nucleobase (MCF-7/HYOR cell cultures; 1 μCi, 16 h): 6.4%
- % of drug-derived radiolabel, Incorporatio into DNA/RNA (MCF-7/HYOR cell cultures; 1 μCi, 16 h): 1.4%
- Share incorporated into the nucleic acids in the presence of TPi (MCF-7/HYOR cell cultures; in the presence of TPi): almost all
- Reduction of incorporation into nucleic acids in infected MCF-7/HYOR cells in comparison with uninfected MCF-7 cells (MCF-7/HYOR cells [2]): 45 fold

Compound: O=c1[nH]c(=O)n([C@H]2C[C@H](O)[C@@H](CO)O2)cc1Cl [CldUrd, 5-chloro-2′-deoxyuridine]
- IC50 (MCF-7 cells; [3]): 760 ± 190 nM
- IC50 (MCF-7 cells; [4]): 640 ± 150 nM
- Ratio (1)/(2) MCF-7 (MCF-7 cells): 1.2
- IC50 (MCF-7/HYOR cells [1]; [5]): 13000 ± 2870 nM
- IC50 (MCF-7/HYOR cells [1]; [6]): 1400 ± 700 nM
- Ratio (1)/(2) MCF-7/HYOR (MCF-7/HYOR cells [1]): 9.3

Compound: O=c1[nH]c(=O)n([C@H]2C[C@H](O)[C@@H](CO)O2)cc1I [IdUrd, 5-iodo-2′-deoxyuridine]
- IC50 (MCF-7 cells; [3]): 1100 ± 260 nM
- IC50 (MCF-7 cells; [4]): 980 ± 390 nM
- Ratio (1)/(2) MCF-7 (MCF-7 cells): 1.1
- IC50 (MCF-7/HYOR cells [1]; [5]): 12000 ± 500 nM
- IC50 (MCF-7/HYOR cells [1]; [6]): 310 ± 50 nM
- Ratio (1)/(2) MCF-7/HYOR (MCF-7/HYOR cells [1]): 39

Compound: O=c1[nH]cc(C(F)(F)F)c(=O)[nH]1 [TF-thymine]
- Incorporation into nucleic acids, infected versus uninfected MCF-7 cells (in words) (MCF-7/HYOR cells [2]): no difference

Compound: Nc1ccn([C@@H]2O[C@H](CO)[C@@H](O)[C@@H]2O)c(=O)n1 [araC, cytarabine]
- IC50 (MCF-7 cells; [3]): 50 ± 4 nM
- IC50 (MCF-7 cells; [4]): 48 ± 9 nM
- Ratio (1)/(2) MCF-7 (MCF-7 cells): 1.0
- IC50 (MCF-7/HYOR cells [1]; [5]): 1200 ± 800 nM
- IC50 (MCF-7/HYOR cells [1]; [6]): 68 ± 3 nM
- Ratio (1)/(2) MCF-7/HYOR (MCF-7/HYOR cells [1]): 17
- Anti-proliferative activity in MCF-7/HYOR after three days pre-incubation with doxycycline (MCF-7/HYOR cells [1]): restores
- Anti-proliferative activity in MCF-7/HYOR after three days pre-incubation with plasmocin (MCF-7/HYOR cells [1]; plasmocin 25 μg/ml): restores

Compound: Nc1nc(Cl)nc2c1ncn2[C@H]1C[C@H](O)[C@@H](CO)O1 [cladribine]
- IC50 (MCF-7 cells; [3]): 460 ± 150 nM
- IC50 (MCF-7 cells; [4]): 390 ± 160 nM
- Ratio (1)/(2) MCF-7 (MCF-7 cells): 1.2
- IC50 (MCF-7/HYOR cells [1]; [5]): 13000 ± 3000 nM
- IC50 (MCF-7/HYOR cells [1]; [6]): 780 ± 230 nM
- Ratio (1)/(2) MCF-7/HYOR (MCF-7/HYOR cells [1]): 17
- Reduction of cytostatic activity in infected MCF-7/HYOR compared to control MCF-7 cells (MCF-7/HYOR cells [1]; M. hyorhinis infection): about 30 fold
- Anti-proliferative activity in MCF-7/HYOR after three days pre-incubation with doxycycline (MCF-7/HYOR cells [1]): restores
- Anti-proliferative activity in MCF-7/HYOR after three days pre-incubation with plasmocin (MCF-7/HYOR cells [1]; plasmocin 25 μg/ml): restores

Compound: O=c1ccn([C@H]2C[C@H](O)[C@@H](CO)O2)c(=O)[nH]1 [dUrd, 2′-deoxyuridine]
- Reduction of incorporation into nucleic acids in infected MCF-7/HYOR cells in comparison with uninfected MCF-7 cells (MCF-7/HYOR cells [2]): 3 fold

Compound: Cc1c[nH]c(=O)[nH]c1=O [thymine]
- Incorporation into nucleic acids, infected versus uninfected MCF-7 cells (in words) (MCF-7/HYOR cells [2]): no difference

Compound: O=c1cc[nH]c(=O)[nH]1 [uracil]
- Incorporation into nucleic acids, infected versus uninfected MCF-7 cells (in words) (MCF-7/HYOR cells [2]): no difference
